Drawing on US11673889B2, “Substituted imidazo[4,5-c][1,8]naphthyridines as phosphodiesterase inhibitors” (Nanjing Zhengxiang Pharmaceuticals Co., Ltd., priority 2019, dated 2023), this text covers IC50 and inhibition for 15 molecules.

Experiment [1] addresses T1, human soluble ENPP1 (Homo sapiens, UniProt P22413).
T1 construct: 20 ng of human soluble ENPP1
T1 sequence (P22413 103-925 limits assumed): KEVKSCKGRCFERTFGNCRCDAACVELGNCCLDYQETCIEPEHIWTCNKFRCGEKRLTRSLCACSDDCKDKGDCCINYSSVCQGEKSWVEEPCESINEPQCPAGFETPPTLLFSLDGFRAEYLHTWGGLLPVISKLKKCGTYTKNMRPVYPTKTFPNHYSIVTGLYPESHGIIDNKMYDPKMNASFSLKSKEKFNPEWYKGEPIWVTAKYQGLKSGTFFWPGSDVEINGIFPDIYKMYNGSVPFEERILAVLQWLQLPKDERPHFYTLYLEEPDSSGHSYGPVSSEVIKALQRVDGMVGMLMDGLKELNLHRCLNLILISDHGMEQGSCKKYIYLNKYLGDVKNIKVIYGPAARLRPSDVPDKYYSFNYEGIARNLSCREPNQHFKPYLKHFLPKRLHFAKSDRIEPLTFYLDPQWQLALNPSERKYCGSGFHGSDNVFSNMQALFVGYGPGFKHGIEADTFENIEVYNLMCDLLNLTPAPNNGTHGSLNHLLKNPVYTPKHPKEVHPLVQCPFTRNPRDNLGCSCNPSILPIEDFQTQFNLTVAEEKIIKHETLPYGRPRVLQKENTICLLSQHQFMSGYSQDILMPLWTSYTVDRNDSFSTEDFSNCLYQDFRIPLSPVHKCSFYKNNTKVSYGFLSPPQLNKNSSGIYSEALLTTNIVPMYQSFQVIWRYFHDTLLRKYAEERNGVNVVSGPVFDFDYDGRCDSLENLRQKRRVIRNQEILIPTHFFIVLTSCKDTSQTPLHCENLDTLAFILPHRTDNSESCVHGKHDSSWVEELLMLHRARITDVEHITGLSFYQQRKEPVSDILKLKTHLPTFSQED
In words: ENPP1 activity assay using p-Nitrophenyl-5′-TMP as a substrate. The format is biochemical. A digest of the protocol:
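Human soluble ENPP1 (20 ng) was preincubated with inhibitor for 30 min at room temperature. TMP-pNP was then added as a 2 mM […] solution and incubated 1 h at RT, with p-nitrophenol formation read by OD. IC50 came from four-parameter fits of % inhibition relative to no-inhibitor and blank controls.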

Another experiment deals with T2, ENPP-1, MDA-MB-231 cells (Homo sapiens, UniProt P22413).
T2 sequence (P22413 1-925): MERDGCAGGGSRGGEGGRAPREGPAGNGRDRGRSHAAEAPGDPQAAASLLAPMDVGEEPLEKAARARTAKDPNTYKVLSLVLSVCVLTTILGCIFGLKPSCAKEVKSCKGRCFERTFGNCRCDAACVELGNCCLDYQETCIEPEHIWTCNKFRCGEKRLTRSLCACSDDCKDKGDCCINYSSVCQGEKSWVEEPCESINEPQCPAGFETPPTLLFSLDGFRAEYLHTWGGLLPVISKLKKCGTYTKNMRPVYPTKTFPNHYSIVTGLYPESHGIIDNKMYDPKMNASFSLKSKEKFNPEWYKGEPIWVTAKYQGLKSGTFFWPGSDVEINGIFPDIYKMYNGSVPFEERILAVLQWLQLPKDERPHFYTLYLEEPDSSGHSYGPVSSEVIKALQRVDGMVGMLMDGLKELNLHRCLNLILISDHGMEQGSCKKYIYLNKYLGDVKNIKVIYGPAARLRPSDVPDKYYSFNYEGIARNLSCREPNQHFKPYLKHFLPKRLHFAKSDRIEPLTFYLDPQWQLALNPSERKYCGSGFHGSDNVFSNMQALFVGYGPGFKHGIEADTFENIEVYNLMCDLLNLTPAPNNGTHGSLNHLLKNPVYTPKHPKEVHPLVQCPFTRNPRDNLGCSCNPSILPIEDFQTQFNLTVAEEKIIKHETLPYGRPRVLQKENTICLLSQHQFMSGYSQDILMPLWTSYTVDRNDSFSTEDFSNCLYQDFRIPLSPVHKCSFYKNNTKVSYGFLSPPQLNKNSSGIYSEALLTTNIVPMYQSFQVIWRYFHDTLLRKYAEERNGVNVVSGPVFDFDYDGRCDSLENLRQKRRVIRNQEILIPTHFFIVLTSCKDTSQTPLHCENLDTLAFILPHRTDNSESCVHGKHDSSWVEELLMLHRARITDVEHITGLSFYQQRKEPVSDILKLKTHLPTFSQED
In words: cell-based. The note with it: for inhibition at 20 µM: MDA-MB-231, read-out: % Inhibition (at 20 μM).

The target in experiment [2] is T1, human soluble ENPP1. Description: ENPP1 activity assay using p-Nitrophenyl-5′-AMP as a substrate. The format is biochemical. The method, boiled down:
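Human soluble ENPP1 (35 ng) preincubated with inhibitor 30 min at RT, then p-nitrophenyl-5′-AMP added (3 mM solution, 2× final) and incubated 1 h at RT. p-Nitrophenolate release read at OD 405 nm; % inhibition vs no-inhibitor and blank controls, IC50 from four-parameter fit.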

Where [3] appears, read: substrate TMP-pNP, 20 ng human soluble ENPP1, Tris buffer pH 9.5, read-out: TMP-pNP (IC50).

Molecules are shown by their SMILES.

Usually IC50 stands for the point on the concentration scale where inhibition reaches its midpoint. In general, inhibition refers to the relative decrease from the control value, in per cent. In the case of `COc1ccc2c(ncc3[nH]c(=O)n(Cc4ccc(S(N)(=O)=O)cn4)c32)n1` [Compound 99, 6-((7-methoxy-2-oxo-2,3-dihydro-1H-imidazo[4,5-c][1,8]naphthyridin-1-yl)methyl)pyridine-3-sulfonamide], the IC50 against human soluble ENPP1 [1] amounted to 0.27 nM; against ENPP-1, MDA-MB-231 cells, 600 nM; on human soluble ENPP1 [2], 0.79 nM. In addition, at ENPP-1, MDA-MB-231 cells, the inhibition at 20 µM was 77%.

For `COc1ccc2c(ncc3[nH]c(=O)n([C@H](C)c4ccc(S(N)(=O)=O)cc4)c32)n1` [Compound 101, (R)-4-(1-(7-methoxy-2-oxo-2,3-dihydro-1H-imidazo[4,5-c][1,8]naphthyridin-1-yl)ethyl)benzenesulfonamide], the IC50 against human soluble ENPP1 [1] turned out to be 0.67 nM; against ENPP-1, MDA-MB-231 cells it was 2400 nM; against human soluble ENPP1 [2], 1.1 nM. Further, on ENPP-1, MDA-MB-231 cells, the inhibition at 20 µM worked out at 76%.

Regarding `COc1ccc2c(ncc3[nH]c(=O)n(Cc4c(F)cc(S(=O)(=O)NC(C)=O)cc4F)c32)n1` [Compound 104, sodium acetyl((3,5-difluoro-4-((7-methoxy-2-oxo-2,3-dihydro-1H-imidazo[4,5-c][1,8]naphthyridin-1-yl)methyl)phenyl)sulfonyl)amide], the IC50 against human soluble ENPP1 [1] turned out to be 8.9 nM; at ENPP-1, MDA-MB-231 cells it was 3400 nM; on human soluble ENPP1 [2], 11 nM. At ENPP-1, MDA-MB-231 cells, the inhibition at 20 µM was found to be 72%.

As to `CCC(=O)NS(=O)(=O)c1cc(F)c(Cn2c(=O)[nH]c3cnc4nc(OC)ccc4c32)c(F)c1` [Compound 105, sodium ((3,5-difluoro-4-((7-methoxy-2-oxo-2,3-dihydro-1H-imidazo[4,5-c][1,8]naphthyridin-1-yl)methyl)phenyl)sulfonyl)(propionyl)amide], the IC50 on human soluble ENPP1 [1] (setting [3]) was 21 nM; on ENPP-1, MDA-MB-231 cells, above 6700 nM; against human soluble ENPP1 [2], 19 nM. Further, on ENPP-1, MDA-MB-231 cells, the inhibition at 20 µM was determined as 67%.

Take `COc1ccc2c(ncc3[nH]c(=O)n(Cc4c(F)cc(C(=O)O)cc4F)c32)n1` [Compound 108, 3,5-difluoro-4-((7-methoxy-2-oxo-2,3-dihydro-1H-imidazo[4,5-c][1,8]naphthyridin-1-yl)methyl)benzoic acid]: the IC50 against human soluble ENPP1 [1] was 16 nM; on ENPP-1, MDA-MB-231 cells, 5700 nM; against human soluble ENPP1 [2], 66 nM. The inhibition at 20 µM on ENPP-1, MDA-MB-231 cells amounted to 64%.

Consider `COc1ccc2c(ncc3[nH]c(=O)n(Cc4c(F)cc(C(=O)NO)cc4F)c32)n1` [Compound 110, 3,5-difluoro-N-hydroxy-4-((7-methoxy-2-oxo-2,3-dihydro-1H-imidazo[4,5-c][1,8]naphthyridin-1-yl)methyl)benzamide], for which the IC50 on human soluble ENPP1 [1] (setting [3]) turned out to be 0.6 nM; at ENPP-1, MDA-MB-231 cells it was 150 nM; against human soluble ENPP1 [2] it was 2.6 nM. In addition, the inhibition at 20 µM on ENPP-1, MDA-MB-231 cells stood at 86%.

As to `COc1ccc2c(ncc3[nH]c(=O)n(Cc4c(F)cc(B(O)O)cc4F)c32)n1` [Compound 111, (3,5-difluoro-4-((7-methoxy-2-oxo-2,3-dihydro-1H-imidazo[4,5-c][1,8]naphthyridin-1-yl)methyl)phenyl)boronic acid], the IC50 on human soluble ENPP1 [1] (setting [3]) was 7.4 nM; on ENPP-1, MDA-MB-231 cells, 0.31 nM; on human soluble ENPP1 [2], 21 nM. The inhibition at 20 µM at ENPP-1, MDA-MB-231 cells worked out at 80%.

Regarding `COc1ccc2c(ncc3[nH]c(=O)n(Cc4c(F)cc(S(N)(=O)=O)c(F)c4F)c32)n1` [Compound 112, 2,3,5-trifluoro-4-((7-methoxy-2-oxo-2,3-dihydro-1H-imidazo[4,5-c][1,8]naphthyridin-1-yl)methyl)benzenesulfonamide], the IC50 on human soluble ENPP1 [1] (setting [3]) worked out at 0.3 nM; against ENPP-1, MDA-MB-231 cells it was 70 nM; at human soluble ENPP1 [2] it was 0.99 nM. In addition, the inhibition at 20 µM at ENPP-1, MDA-MB-231 cells came out at 80%.

Turning to `COc1ccc2c(n1)nc(C)c1[nH]c(=O)n(Cc3c(F)cc(S(N)(=O)=O)cc3F)c12` [Compound 113, 3,5-difluoro-4-((7-methoxy-4-methyl-2-oxo-2,3-dihydro-1H-imidazo[4,5-c][1,8]naphthyridin-1-yl)methyl)benzenesulfonamide], the IC50 at human soluble ENPP1 [1] (setting [3]) was determined as 1.1 nM; against ENPP-1, MDA-MB-231 cells, 250 nM; on human soluble ENPP1 [2] it was 5 nM. Besides, the inhibition at 20 µM at ENPP-1, MDA-MB-231 cells came to 72%.

For `COc1ccc2c(ncc3c2n(Cc2c(F)cc(S(N)(=O)=O)cc2F)c(=O)n3CCO)n1` [Compound 115, 3,5-difluoro-4-((3-(2-hydroxyethyl)-7-methoxy-2-oxo-2,3-dihydro-1H-imidazo[4,5-c][1,8]naphthyridin-1-yl)methyl)benzenesulfonamide], the IC50 at human soluble ENPP1 [1] (setting [3]) is 0.11 nM; at ENPP-1, MDA-MB-231 cells, 56 nM; on human soluble ENPP1 [2], 0.32 nM. Besides, the inhibition at 20 µM on ENPP-1, MDA-MB-231 cells came to 78%.

With `COc1ccc2c(ncc3cnn(Cc4ccc(S(N)(=O)=O)cc4)c32)n1` [Compound 116, 4-((7-methoxy-1H-pyrazolo[4,3-c][1,8]naphthyridin-1-yl)methyl)benzenesulfonamide], the IC50 at human soluble ENPP1 [1] worked out at 0.38 nM; against ENPP-1, MDA-MB-231 cells it was 1800 nM; against human soluble ENPP1 [2] it was 1.8 nM. Further, the inhibition at 20 µM at ENPP-1, MDA-MB-231 cells stood at 68%.

For the molecule `COc1ccc2c(ncc3ccn(Cc4ccc(S(N)(=O)=O)cc4)c32)n1` [Compound 117, 4-((7-methoxy-1H-pyrrolo[3,2-c][1,8]naphthyridin-1-yl)methyl)benzenesulfonamide], the IC50 is 8.1 nM against human soluble ENPP1 [1]; 16000 nM against ENPP-1, MDA-MB-231 cells; 34 nM on human soluble ENPP1 [2]. On ENPP-1, MDA-MB-231 cells, the inhibition at 20 µM came to 16%.

As for `COc1ccc2c(c1)nnc1[nH]c(=O)n(Cc3ccc(S(N)(=O)=O)cc3F)c12` [Compound 123, 3-fluoro-4-((7-methoxy-2-oxo-2,3-dihydro-1H-imidazo[4,5-c]cinnolin-1-yl)methyl)benzenesulfonamide], the IC50 on human soluble ENPP1 [1] (setting [3]) came out at 0.61 nM; on ENPP-1, MDA-MB-231 cells it was 1800 nM; against human soluble ENPP1 [2], 2.4 nM. Further, on ENPP-1, MDA-MB-231 cells, the inhibition at 20 µM is 66%.

Regarding `COc1ccc2c(ncc3[nH]c(=O)n(Cc4c(F)cc(P(=O)(O)O)cc4F)c32)n1` [Compound 124, (3,5-difluoro-4-((7-methoxy-2-oxo-2,3-dihydro-1H-imidazo[4,5-c][1,8]naphthyridin-1-yl)methyl)phenyl)phosphonic acid], the IC50 was 19 nM at human soluble ENPP1 [1]; 9.6 nM against ENPP-1, MDA-MB-231 cells; 56 nM on human soluble ENPP1 [2]. Moreover, the inhibition at 20 µM at ENPP-1, MDA-MB-231 cells was found to be 86%.

In the case of `COc1ccc2c(ncc3nc(C)n(Cc4cc(F)c(P(=O)(O)O)cc4F)c32)n1` [Compound 125, (2,5-difluoro-4-((7-methoxy-2-methyl-1H-imidazo[4,5-c][1,8]naphthyridin-1-yl)methyl)phenyl)phosphonic acid], the IC50 on human soluble ENPP1 [1] is 7.2 nM; at ENPP-1, MDA-MB-231 cells it was 2.7 nM; against human soluble ENPP1 [2], 21 nM. Also, the inhibition at 20 µM on ENPP-1, MDA-MB-231 cells is 82%.
